From US20220323761A1, “METHOD FOR INDUCING HIBERNATION-LIKE STATE AND DEVICE SAME” (University of Tsukuba, priority 2019, published 2022)

Key:
[1] = biological target: T1, adenosine A1 receptor (Mus musculus, UniProt Q60612); experiment: Metabolic state induced by IP CHA in wild-type mice; format: in vivo
T1 construct: endogenous in cells; host or cells: whole mouse, in vivo (intraperitoneal CHA)
T1 sequence (Q60612 1-326): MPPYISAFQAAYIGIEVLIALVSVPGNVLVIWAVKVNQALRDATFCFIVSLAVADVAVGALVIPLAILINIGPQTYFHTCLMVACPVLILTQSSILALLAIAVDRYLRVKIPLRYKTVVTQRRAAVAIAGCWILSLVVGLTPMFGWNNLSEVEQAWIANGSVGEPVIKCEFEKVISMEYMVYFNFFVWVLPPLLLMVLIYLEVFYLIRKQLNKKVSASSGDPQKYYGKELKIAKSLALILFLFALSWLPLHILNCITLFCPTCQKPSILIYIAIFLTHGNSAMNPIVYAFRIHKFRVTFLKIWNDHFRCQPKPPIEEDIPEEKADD
From the text: In order to record the core body temperature, oxygen consumption amount, EEG, ECG, and respiratory patterns, each animal was housed in a temperature controlled chamber (HC-100, Shin Factory or LP-400P-AR, Nippon Medical & Chemical Instruments Co., Ltd.). In order to continuously record the TB (intraperitoneal temperature), a telemetry temperature sensor (TA11TA-F10, DSI) was implanted into the animal's abdominal cavity under general inhalation anesthesia at least 7 days prior to the recording. The VO 2 and carbon dioxide discharge rate (VCO2) of the animal were continuously recorded using a respiratory gas analyzer (ARCO-2000 mass spectrometer, ARCO System). The respiratory quotient was calculated from the ratio of VCO2/VO2.
The Dreadd agonist CNO (clozapine N-oxide, Abcam, ab141704) was dissolved in physiological saline at a dose of 100 μg/mL, and the solution was frozen at −20° C. The CNO solution was thawed on site and then administered to each mouse intraperitoneally at a dose of 1 mg/kg. The adenosineAl receptor agonist CHA (N^6-cyclohexyl adenosine, Sigma-Aldrich, C9901) was dissolved in physiological saline at a concentration of 250 μg/mL, and the solution was administered intraperitoneally to each mouse at a dose of 2.5 mg/kg.

[2] = administered centrally; cited from earlier work

Compound	induction of hypothermic/hypometabolic state ([1]; IP 2.5 mg/kg, wild-type mice)	reaction to low TA through behavior (posture and shivering) or increase in VO2 ([1]; TA 12° C., IP 2.5 mg/kg)	TB and VO2 at lowered TA ([1]; TA set to 12° C.)	TB compared with QIH ([1]; at 20°)	heart rate and blood pressure [2]	sympathetic nerve outflow [2]
OC[C@H]1O[C@@H](n2cnc3c(NC4CCCCC4)ncnc32)[C@H](O)[C@@H]1O [CHA, N^6-cyclohexyl adenosine]	effectively induced a hypothermic/hypometabolic state	did not react	further reduced	tends to be higher	–	–
pyroglutamylated RFamide peptide (QDEGSEATGFLPAAGEKTSGPLGNLAEELNGYSRKKGGFSFRF; QRF-amide; UniProt P83859 91-133, looked up) [Qrfp, hypothalamic neuropeptide, endogenous ligand of the orphan G-protein-coupled receptor hGPR103]	–	–	–	–	increase	increases
